The text below walks through data of US11298409B2, “Mutant huntingtin-mediated protein dysfunction” (UNIVERSITY OF PITTSBURGH—OF THE COMMONWEALTH SYSTEM OF …, priority 2014, dated 2022).

Data set [1] concerns primary cortical and striatal neurons. As to the kind of experiment: cell death assay by nuclear morphology in Tom40 RNAi-transfected primary neurons. The format is cell-based, mouse. The note with it: 20 μM. How it is done: Mouse primary cortical and striatal neurons from embryonic day (E) 15.5 Swiss Webster mouse fetuses were cultured in plating medium (minimal essential medium (MEM), 10% FBS, 0.45% glucose, 1 mM sodium pyruvate, 2 mM glutamine and penicillin/streptomycin) for 3 h and then maintained in serum-free Neurobasal medium containing B27 supplement (Life Technologies), 0.5 mM glutamine and 25 μM glutamate for the first 3 d in a humidified incubator (37° C. in 5% CO2). Half of the medium was replaced with Neurobasal medium with B27 and 0.5 mM glutamine every 3 d. […] Viral copy number was adjusted for transduction of neurons on the basis of titer measured using the Lenti-X qRT-PCR titration kit (Clontech). […]
Primary neurons infected with Tim23 shRNA or control luciferase shRNA lentivirus at DIV 5 were fixed 7 d after infection. Nuclei were stained with Hoechst 33342, and neurons were assessed in a blinded fashion for cell death by scoring condensed or fragmented nuclei. Primary neurons plated in a 24-well plate were transfected with Tom40 shRNA or control pBSU6 plasmid along with β-gal expression plasmid at DIV 5, fixed 3 d after transfection and subjected to indirect immunofluorescence with anti-β-gal antibody and nuclear DAPI staining. β-gal-positive neurons were assessed for cell death as described above. […]

The test system of data set [2] is TIM23 complex (Tim17a, Tim23 and Tim50). As to the kind of experiment: GST pull-down with mitochondria isolated from ST14A striatal cells and mouse brain. The format is binding, rat. How it is done: Extracts were spun at 14,000 r.p.m. at 4° C., and clarified supernatants were incubated with glutathione 4B Sepharose beads (GE Healthcare) at 4° C. overnight. The glutathione beads were then washed extensively with ice-cold TNE buffer, and bound proteins were subjected to SDS-PAGE followed by immunoblotting analysis. For the samples subjected to mass spectrometry, glutathione bead-bound proteins from equal amounts (600 μg) of mitochondria were further washed with high stringency RIPA buffer following TNE buffer wash to decrease nonspecific interaction. Proteins were then eluted from the glutathione beads in SDS sample buffer, separated by SDS-PAGE and stained with Coomassie. Proteins in the gel were digested with trypsin and analyzed by mass spectrometry (LC-MS/MS) at the Taplin Biological Mass Spectrometry Facility (Harvard Medical School, Boston, Mass.).
We therefore performed GST pull-down assays using purified GST-Httex1-97Q, GST-Httex1-97Q-ΔN17, which lacks the N17 sequence, and GST-N17 with mitochondria isolated from ST14A striatal cells and mouse brain.

The next data set has as its target T1, Tim23 (Mus musculus, UniProt Q9WTQ8).
T1 construct: GST (N, cleaved yes); made in house; host or cells: E. coli BL21star (DE3)
T1 sequence (Q9WTQ8 1-209): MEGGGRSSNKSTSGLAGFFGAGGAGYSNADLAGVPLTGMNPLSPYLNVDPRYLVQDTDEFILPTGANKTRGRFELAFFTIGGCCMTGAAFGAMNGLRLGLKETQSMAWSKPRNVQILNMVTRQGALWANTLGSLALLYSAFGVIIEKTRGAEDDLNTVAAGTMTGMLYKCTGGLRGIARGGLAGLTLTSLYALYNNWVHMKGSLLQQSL
As to the kind of experiment: GST pull down assay with purified Tim proteins. The data set is classed as binding. The method, then: Mouse Timm23, Timm50, Timm17A, and Timm17B cDNA were subcloned into the GST-Httex1 vector and transformed into BL21star (DE3) cells (Life Technologies). GST-Tim23, GST-Tim50, GST-Tim17A, and GST-Tim17B fusion proteins were purified from the cells by using glutathione 4B Sepharose beads (GE Healthcare) to bind the fusion proteins. To purify Tim proteins from GST, the GST fusion protein-bead complexes were digested with thrombin protease (GE Healthcare) at 25° C. overnight, and eluted with PBS. The eluted proteins were concentrated in PBS using AmiconUltra-10K centrifugal filters (Millipore).
GST-Htt exon 1 proteins and GST removed Tim proteins were incubated with glutathione 4B Sepharose beads (GE Healthcare) at 4° C. overnight. The glutathione beads were then washed extensively with ice-cold PBS, and bound proteins were subjected to SDS-PAGE followed by immunoblotting analysis.

Data set [3] relates to pOTC import into mitochondria isolated from striatal cells. The data set is described as follows: pOTC import assay with mitochondria from striatal cells plus uncoupler. The data set is classed as biochemical. To be noted: added to mitochondria before starting the import reaction. The method, then:
The assay was performed as previously described (52,53).

In data set [4] the test system is WT primary cortical neurons. The note with it: 10 μM.
Description: Primary cortical neurons were prepared from R6/2 and WT littermate embryos at E15.5. Neurons prepared from each embryo were plated into separate dishes. […] Primary cortical neurons were incubated with the indicated concentrations of H2O2 for 1 day, and neuronal death was analyzed by lactate dehydrogenase (LDH) assay (11c). Data (11b, 11c) are presented as mean+s.e.m.
In data set [5] the test system is mitochondrial protein import in primary cortical neurons. The note with it: 10 μM, 2 h.
Description: Neurons obtained from each embryo were cultured separately on poly-1-lysine-coated plates and subjected to in vitro pOTC import assay on DIV 7-8.
Pre-ornithine transcarbamylase (pOTC) cDNA in pGEM-3Zf(+)-pOTC plasmid, which was kindly provided by M. Yano (Kumamoto University, Kumamoto, Japan), was transcribed and translated in vitro using the TNT-coupled reticulocyte lysate system (Promega) in the presence of 1-[^35S]methionine (PerkinElmer). Following translation, [35 S]methionine-labeled pOTC was incubated with isolated mitochondria at 25° C. for the indicated times, and mitochondria containing imported OTC were collected by centrifugation (9,000 g, 10 min) and subjected to SDS-PAGE. The radioactive polypeptides on the gel were visualized by fluorography with Amplify (GE Healthcare) followed by exposure to X-ray film. Cleaved mature OTC (mOTC), which represents the completion of import into the mitochondrial matrix and migrates faster than pOTC on SDS-PAGE, was quantified by ImageJ (NIH). The data are presented as the percentage of mOTC compared to input (total [^35S]pOTC amount added to each reaction) and scaled to imported mOTC in control mitochondria after the maximum reaction time (set equal to 1) unless otherwise specified. […]

Read-outs that look alike come from different tables or passages of the source. No end group written: not given here.

In the case of `CC(C)[C@H](NC(=O)c1ccc2ccccc2n1)C(=O)N[C@@H](CC(=O)O)C(=O)COc1c(F)cccc1F` [qVD-OPh], the “effect on Tom40 RNAi-induced neuronal death” value in data set [1] is on record as “partially but significantly inhibited”.
Take “GST-N17: GST tagged N terminal 17 amino acids of Huntingtin protein (MATLEKLMKAFESLKSF; also: GST tagged, side not given here)”: in data set [2], the “interaction with Tim17a, Tim23 and Tim50 in pull-down” value is “little, if any, interaction”. Moreover, the “binding to Tim23 in pull down” value in the data set with Tim23 is given as “did not bind”.
For the compound `O=[N+]([O-])c1ccc(O)c([N+](=O)[O-])c1` [2,4-dinitrophenol], the “effect on pOTC import” value in data set [3] is recorded as “blocks import”.
Turning to `OO` [hydrogen peroxide], in data set [4], the effect on survival entry is listed as “does not affect”. The “effect on mitochondrial protein import vs vehicle” value in data set [5] (R6/2 neurons) is reported as “significantly decreased import”; in data set [5] (WT neurons), “little to no effect”.
